Laboratory results taken from ChEMBL document CHEMBL3045652, “Biorational glycol diesters as dietary toxins versus bioefficacy of sucrose octanoate against lepidopteran larvae” (Ind Crops Prod, 2012).
≈ marks a conversion by molar mass, not a printed value. Calls of active or inactive are those of the source. No cut-off for these calls is given here.

Key:
Spodoptera litura [1] = experiment: Antifeedant activity against third-instar larval stage of Spodoptera litura fed with artificial diet containing compound assessed as relative consumption rate at 8.25 mg/ml after 3 days (reference value: 2.13 +/- 0.18 mg/mg/day); assay type: functional
Helicoverpa armigera [2] = experiment: Antifeedant activity against third-instar larval stage of Helicoverpa armigera fed with artificial diet containing compound assessed as efficiency index of ingested food at 9.88 mg/ml after 3 days (reference value: 52%); assay type: functional
Spodoptera litura [3] = experiment: Insecticidal activity against second-instar larval stage of Spodoptera litura fed with artificial diet containing compound assessed as growth inhibition after 7 days; assay type: functional, organism-based; details: for EC50: 168 h
Helicoverpa armigera [4] = experiment: Insecticidal activity against second-instar larval stage of Helicoverpa armigera fed with artificial diet containing compound assessed as growth inhibition after 7 days; assay type: functional, organism-based; details: for EC50: 168 h
Helicoverpa armigera [5] = experiment: Insecticidal activity against second-instar larval stage of Helicoverpa armigera fed with artificial diet containing compound assessed as mortality after 7 days; assay type: functional; details: 168 h
Spodoptera litura [6] = experiment: Antifeedant activity against third-instar larval stage of Spodoptera litura fed with artificial diet containing compound assessed as relative growth rate at 8.25 mg/ml after 3 days (reference value: 1.37 +/- 0.12 mg/mg/day); assay type: functional
Helicoverpa armigera [7] = experiment: Antifeedant activity against third-instar larval stage of Helicoverpa armigera fed with artificial diet containing compound assessed as relative growth rate at 9.88 mg/ml after 3 days (reference value: 0.97 +/- 0.13 mg/mg/day); assay type: functional
Spodoptera litura [8] = experiment: Insecticidal activity against second-instar larval stage of Spodoptera litura fed with artificial diet containing compound assessed as mortality after 7 days; assay type: functional; details: 168 h
Helicoverpa armigera [9] = experiment: Antifeedant activity against third-instar larval stage of Helicoverpa armigera fed with artificial diet containing compound assessed as relative consumption rate at 9.88 mg/ml after 3 days (reference value: 1.88 +/- 0.14 mg/mg/day); assay type: functional
Spodoptera litura [10] = experiment: Antifeedant activity against third-instar larval stage of Spodoptera litura fed with artificial diet containing compound assessed as efficiency index of ingested food at 8.25 mg/ml after 3 days (reference value: 64.5%); assay type: functional
Helicoverpa armigera [11] = experiment: Insecticidal activity against second-instar larval stage of Helicoverpa armigera assessed as increase in mortality applied as spray at 1 to 10 mg/ml after 72 hr; assay type: functional, organism-based
Spodoptera litura [12] = experiment: Antifeedant activity against third-instar larval stage of Spodoptera litura fed with artificial diet containing compound assessed as efficiency index of ingested food at 4.38 mg/ml after 3 days (reference value: 64.5%); assay type: functional
Helicoverpa armigera [13] = experiment: Antifeedant activity against third-instar larval stage of Helicoverpa armigera fed with artificial diet containing compound assessed as relative growth rate at 5.38 mg/ml after 3 days (reference value: 0.97 +/- 0.13 mg/mg/day); assay type: functional
Spodoptera litura [14] = experiment: Insecticidal activity against second-instar larval stage of Spodoptera litura assessed as increase in mortality applied as spray at 1 to 10 mg/ml after 72 hr; assay type: functional, organism-based
Helicoverpa armigera [15] = experiment: Antifeedant activity against third-instar larval stage of Helicoverpa armigera fed with artificial diet containing compound assessed as efficiency index of ingested food at 5.38 mg/ml after 3 days (reference value: 52%); assay type: functional
Spodoptera litura [16] = experiment: Antifeedant activity against third-instar larval stage of Spodoptera litura fed with artificial diet containing compound assessed as relative growth rate at 4.38 mg/ml after 3 days (reference value: 1.37 +/- 0.12 mg/mg/day); assay type: functional
Spodoptera litura [17] = experiment: Antifeedant activity against third-instar larval stage of Spodoptera litura fed with artificial diet containing compound assessed as relative consumption rate at 4.38 mg/ml after 3 days (reference value: 2.13 +/- 0.18 mg/mg/day); assay type: functional
Helicoverpa armigera [18] = experiment: Antifeedant activity against third-instar larval stage of Helicoverpa armigera fed with artificial diet containing compound assessed as relative consumption rate at 5.38 mg/ml after 3 days (reference value: 1.88 +/- 0.14 mg/mg/day); assay type: functional

CCCC(CC)C(=O)OCCCCCOC(=O)C(CC)CCC (centres undefined) [PENTANE-1,5-DI-(2-ETHYLHEXANOATE)]
Activity (Spodoptera litura [1]): 1.99 mg/mg/day | ECI (Helicoverpa armigera [2]): 40% | growth inhibition (GI) (Spodoptera litura [3]): Dose-dependent effect | EC50 (Spodoptera litura [3]): 7850 µg/mL (≈ 23.9 mM) | growth inhibition (GI) (Helicoverpa armigera [4]): Dose-dependent effect | EC50 (Helicoverpa armigera [4]): 5560 µg/mL (≈ 16.9 mM) | LC50 (Helicoverpa armigera [5]): 2000 µg/mL (≈ 6.09 mM) | Activity (Spodoptera litura [6]): 1.06 mg/mg/day | Activity (Helicoverpa armigera [7]): 0.72 mg/mg/day | LC50 (Spodoptera litura [8]): 2000 µg/mL (≈ 6.09 mM) | Activity (Helicoverpa armigera [9]): 1.8 mg/mg/day | ECI (Spodoptera litura [10]): 46%

CCCCCC(=O)OCCCCCOC(=O)CCCCC [PENTANE-1,5-DIHEXANOATE]
growth inhibition (GI) (Spodoptera litura [3]): Dose-dependent effect | EC50 (Spodoptera litura [3]): 7510 µg/mL (≈ 25 mM) | growth inhibition (GI) (Helicoverpa armigera [4]): Dose-dependent effect | EC50 (Helicoverpa armigera [4]): 8050 µg/mL (≈ 26.8 mM)

CC(C)C(=O)OCCOC(=O)C(C)C [ETHYLENE GLYCOL DIISOBUTANOATE]
growth inhibition (GI) (Spodoptera litura [3]): Dose-dependent effect | EC50 (Spodoptera litura [3]): 5000 µg/mL (≈ 24.7 mM) | growth inhibition (GI) (Helicoverpa armigera [4]): Dose-dependent effect | EC50 (Helicoverpa armigera [4]): 5880 µg/mL (≈ 29.1 mM)

CCCCCCCC(=O)OCCCCCOC(=O)CCCCCCC [PENTANE-1,5-DIOCTANOATE]
growth inhibition (GI) (Spodoptera litura [3]): Dose-dependent effect | EC50 (Spodoptera litura [3]): 4760 µg/mL (≈ 13.4 mM) | growth inhibition (GI) (Helicoverpa armigera [4]): Dose-dependent effect | EC50 (Helicoverpa armigera [4]): 4670 µg/mL (≈ 13.1 mM)

CCCC(=O)OCCCCCOC(=O)CCC [PENTANE-1,5-DIBUTANOATE]
growth inhibition (GI) (Spodoptera litura [3]): Dose-dependent effect | EC50 (Spodoptera litura [3]): 4860 µg/mL (≈ 19.9 mM) | growth inhibition (GI) (Helicoverpa armigera [4]): Dose-dependent effect | EC50 (Helicoverpa armigera [4]): 4500 µg/mL (≈ 18.4 mM)

CCCC(CC)C(=O)OCCOC(=O)C(CC)CCC (centres undefined)
growth inhibition (GI) (Spodoptera litura [3]): Dose-dependent effect | EC50 (Spodoptera litura [3]): 2800 µg/mL (≈ 9.78 mM) | growth inhibition (GI) (Helicoverpa armigera [4]): Dose-dependent effect | EC50 (Helicoverpa armigera [4]): 2440 µg/mL (≈ 8.52 mM)

CCCC(CC)C(=O)OC1CCC(OC2CCC(OC(=O)C(CC)CCC)CC2)CC1 (centres undefined) [4-(4-O-(2-ETHYL)HEXANOYLCYCLOHEXYLOXY)-CYCLOHEXYL-(2-ETHYL)HEXANOATE]
growth inhibition (GI) (Spodoptera litura [3]): Dose-dependent effect | EC50 (Spodoptera litura [3]): 6270 µg/mL (≈ 14.3 mM) | growth inhibition (GI) (Helicoverpa armigera [4]): Dose-dependent effect | EC50 (Helicoverpa armigera [4]): 7000 µg/mL (≈ 16 mM)

CCCCC(=O)OC1CCC(OC2CCC(OC(=O)CCCC)CC2)CC1 (centres undefined) [4-(4-O-PENTANOYLCYCLOHEXYLOXY)-CYCLOHEXYL PENTANOATE]
growth inhibition (GI) (Spodoptera litura [3]): Dose-dependent effect | EC50 (Spodoptera litura [3]): 7890 µg/mL (≈ 20.6 mM) | growth inhibition (GI) (Helicoverpa armigera [4]): Dose-dependent effect | EC50 (Helicoverpa armigera [4]): 8240 µg/mL (≈ 21.5 mM)

CCCCCCCC(=O)OC1CCC(OC2CCC(OC(=O)CCCCCCC)CC2)CC1 (centres undefined) [4-(4-O-OCTANOYLCYCLOHEXYLOXY)-CYCLOHEXYL OCTANOATE]
growth inhibition (GI) (Spodoptera litura [3]): Dose-dependent effect | EC50 (Spodoptera litura [3]): 5760 µg/mL (≈ 12.3 mM) | growth inhibition (GI) (Helicoverpa armigera [4]): Dose-dependent effect | EC50 (Helicoverpa armigera [4]): 6340 µg/mL (≈ 13.6 mM)

CCCCC(=O)OCCOCCOCCOC(=O)CCCC [TRIETHYLENE GLYCOL DIPENTANOATE]
growth inhibition (GI) (Spodoptera litura [3]): Dose-dependent effect | EC50 (Spodoptera litura [3]): 1540 µg/mL (≈ 4.84 mM) | growth inhibition (GI) (Helicoverpa armigera [4]): Dose-dependent effect | EC50 (Helicoverpa armigera [4]): 2090 µg/mL (≈ 6.56 mM)

CCCCC(=O)OCC(C)COC(=O)CCCC
growth inhibition (GI) (Spodoptera litura [3]): Dose-dependent effect | EC50 (Spodoptera litura [3]): 7020 µg/mL (≈ 27.2 mM) | growth inhibition (GI) (Helicoverpa armigera [4]): Dose-dependent effect | EC50 (Helicoverpa armigera [4]): 7840 µg/mL (≈ 30.3 mM)

CCCC(=O)OCCOCCOCCOC(=O)CCC [TRIETHYLENE GLYCOL DIBUTANOATE]
Activity (Helicoverpa armigera [11]): Active | growth inhibition (GI) (Spodoptera litura [3]): Dose-dependent effect | EC50 (Spodoptera litura [3]): 1640 µg/mL (≈ 5.65 mM) | ECI (Spodoptera litura [12]): 61% | Activity (Helicoverpa armigera [13]): 0.54 mg/mg/day | Activity (Spodoptera litura [14]): Active | growth inhibition (GI) (Helicoverpa armigera [4]): Dose-dependent effect | EC50 (Helicoverpa armigera [4]): 2120 µg/mL (≈ 7.3 mM) | ECI (Helicoverpa armigera [15]): 32.7% | Activity (Spodoptera litura [16]): 0.77 mg/mg/day | LC50 (Helicoverpa armigera [5]): 2000 µg/mL (≈ 6.89 mM) | Activity (Spodoptera litura [17]): 2.06 mg/mg/day | LC50 (Spodoptera litura [8]): 2000 µg/mL (≈ 6.89 mM) | Activity (Helicoverpa armigera [18]): 1.67 mg/mg/day

CCCCCC(=O)OCC(C)COC(=O)CCCCC
growth inhibition (GI) (Spodoptera litura [3]): Dose-dependent effect | EC50 (Spodoptera litura [3]): 7580 µg/mL (≈ 26.5 mM) | growth inhibition (GI) (Helicoverpa armigera [4]): Dose-dependent effect | EC50 (Helicoverpa armigera [4]): 7760 µg/mL (≈ 27.1 mM)

CCCCCC(=O)OCCOC(=O)CCCCC [ETHYLENE GLYCOL DIHEXANOATE]
growth inhibition (GI) (Spodoptera litura [3]): Dose-dependent effect | EC50 (Spodoptera litura [3]): 1780 µg/mL (≈ 6.89 mM) | growth inhibition (GI) (Helicoverpa armigera [4]): Dose-dependent effect | EC50 (Helicoverpa armigera [4]): 2160 µg/mL (≈ 8.36 mM)
